The values below come from patent publication US6495578B1, “Sulfonamide derivatives having oxadiazole rings” (Shionogi & Co., Ltd., priority 1999, dated 2002).

The assay addresses T1, MMP-2 (Homo sapiens, UniProt P08253).
T1 construct: purchased Calbiochem-Novabiochem International, Inc
T1 sequence (P08253 110-660): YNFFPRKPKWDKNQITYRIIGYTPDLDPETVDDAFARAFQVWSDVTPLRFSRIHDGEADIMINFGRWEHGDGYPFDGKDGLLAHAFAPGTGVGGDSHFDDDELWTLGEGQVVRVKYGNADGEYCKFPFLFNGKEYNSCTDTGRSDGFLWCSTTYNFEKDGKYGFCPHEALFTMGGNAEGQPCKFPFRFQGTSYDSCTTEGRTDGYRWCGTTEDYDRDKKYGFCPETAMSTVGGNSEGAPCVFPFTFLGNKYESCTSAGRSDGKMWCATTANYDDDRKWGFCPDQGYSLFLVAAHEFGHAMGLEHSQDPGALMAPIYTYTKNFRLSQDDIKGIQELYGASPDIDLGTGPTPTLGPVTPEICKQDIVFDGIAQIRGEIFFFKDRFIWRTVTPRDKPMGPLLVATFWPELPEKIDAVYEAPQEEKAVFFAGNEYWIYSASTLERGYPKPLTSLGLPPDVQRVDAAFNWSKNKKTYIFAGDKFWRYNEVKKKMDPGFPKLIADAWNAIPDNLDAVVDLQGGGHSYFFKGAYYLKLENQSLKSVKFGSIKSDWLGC
Kind of assay: Assay for inhibitory activities on MMP-2 (fluorogenic coumarin-labelled peptide substrate). Conditions: MMP-2 purchased from Calbiochem-Novabiochem; substrate MOCAc-Pro-Leu-Gly-Leu-A2Pr(DNP)-Ala-Arg-NH2. It is filed as biochemical. The method, then: MMP-2 was purchased from Calbiochem-Novabiochem International, Inc.
The enzymatic activity on MMP-2 was analyzed by the method described in “C. Graham Knight, Frances Willenbrock and Gillian Murphy: A novel coumarin-labelled peptide for sensitive continuous assays of the matrix metalloproteinases: FEBS LETT., 296, (1992), 263-266”. The substrate: MOCAc-Pro-Leu-Gly-Leu-A2Pr(DNP)-Ala-Arg-NH2 was purchased from Peptide Institute, Inc., Osaka, Japan.
The measurement of the inhibitory activities (IC50) was carried out by the following four methods;
A) Reaction with substrate, enzyme (MMPs) and inhibitor
B) Reaction with substrate and inhibitor, without enzyme
C) Reaction with substrate and enzyme (MMPs), without inhibitor
D) Reaction with substrate only
IC50 values were calculated by using the following formula and each fluorescence values of above four methods (A to D).
IC50 means the concentration required to inhibit 50% of the enzyme activity.
Regarding `CC(C)[C@@H](NS(=O)(=O)c1ccc(-c2noc(-c3ccc(Cl)cc3)n2)cc1)C(=O)O` [Compound A-2], the IC50 worked out at 5.75 nM.

For the compound `CCc1ccc(-c2nc(-c3ccc(S(=O)(=O)N[C@@H](C(=O)O)C(C)C)cc3)no2)cc1` [Compound A-3], the IC50 was found to be 1.24 nM.

For `CCCCc1ccc(-c2nc(-c3ccc(S(=O)(=O)N[C@@H](C(=O)O)C(C)C)cc3)no2)cc1` [Compound A-4], the midpoint of inhibition, the IC50, lay at 1.23 nM. As for `Cc1ccc(-c2nc(-c3ccc(S(=O)(=O)N[C@H](Cc4ccccc4)C(=O)O)cc3)no2)cc1` [Compound A-5], the half-inhibitory concentration (IC50) was 6.68 nM. `O=C(O)[C@@H](Cc1ccccc1)NS(=O)(=O)c1ccc(-c2noc(-c3ccc(Cl)cc3)n2)cc1` [Compound A-6] gave a half-inhibitory concentration (IC50) of 13.9 nM. This IC50 lies about 2.1-fold higher than the previous one. In turn, `O=C(O)[C@@H](Cc1ccccc1)NS(=O)(=O)c1ccc(-c2noc(-c3ccc(F)cc3)n2)cc1` [Compound A-7] showed a half-inhibitory concentration (IC50) of 26.5 nM. The result for `CN(C)c1ccc(-c2nc(-c3ccc(S(=O)(=O)N[C@H](Cc4ccccc4)C(=O)O)cc3)no2)cc1` [Compound A-8] reads 11.9 nM. `CCCCc1ccc(-c2nc(-c3ccc(S(=O)(=O)N[C@H](Cc4ccccc4)C(=O)O)cc3)no2)cc1` [Compound A-9]: the IC50 was found to be 6.04 nM. The value for `Cc1ccc(-c2nc(-c3ccc(S(=O)(=O)N[C@H](C)C(=O)O)cc3)no2)cc1` [Compound A-10] was 9.17 nM; that for `C[C@@H](NS(=O)(=O)c1ccc(-c2noc(-c3ccc(Cl)cc3)n2)cc1)C(=O)O` [Compound A-11] was 18.6 nM; that for `Cc1ccc(-c2nc(-c3ccc(S(=O)(=O)NCC(=O)O)cc3)no2)cc1` [Compound A-12] was 51.6 nM. Regarding `O=C(O)CNS(=O)(=O)c1ccc(-c2noc(-c3ccc(Cl)cc3)n2)cc1` [Compound A-13], it took 85.2 nM to reach half-maximal inhibition (IC50). Compound `CC(C)[C@@H](NS(=O)(=O)c1ccc(-c2noc(-c3ccccc3)n2)cc1)C(=O)O` [Compound A-16] displayed an IC50 of 26.4 nM. The result for `CC(C)[C@@H](NS(=O)(=O)c1ccc(-c2noc(-c3ccc(F)cc3)n2)cc1)C(=O)O` [Compound A-17] reads 15.5 nM; that for `Cc1ccc(-c2nc(-c3ccc(S(=O)(=O)NC(C(=O)O)C(C)C)cc3)no2)cc1` (stereo not drawn) [Compound A-19], 114 nM; that for `CCCc1ccc(-c2nc(-c3ccc(S(=O)(=O)NC(C(=O)O)C(C)C)cc3)no2)cc1` (stereo not drawn) [Compound A-20], 0.883 nM. As to `CCCc1ccc(-c2nc(-c3ccc(S(=O)(=O)N[C@H](C(=O)O)C(C)C)cc3)no2)cc1` [Compound A-21], the IC50 was determined as 126 nM. As for `CC(C)[C@@H](NS(=O)(=O)c1ccc(-c2noc(-c3cccs3)n2)cc1)C(=O)O` [Compound A-22], half-maximal inhibition (IC50) was put at 40.7 nM. Against the preceding compound, the IC50 is about 3.1-fold lower.

For the compound `CC(C)[C@H](NS(=O)(=O)c1ccc(-c2noc(-c3cccs3)n2)cc1)C(=O)O` [Compound A-23], the half-maximal inhibitory concentration (IC50) was found to be 339 nM. The result for `Cc1ccc(-c2nc(-c3ccc(S(=O)(=O)N[C@@H](C(=O)O)C(C)C)cc3)no2)s1` [Compound A-24] reads 2.88 nM; that for `Cc1ccc(-c2nc(-c3ccc(S(=O)(=O)N[C@H](C(=O)O)C(C)C)cc3)no2)s1` [Compound A-25], 47.4 nM.

For `CC(C)[C@@H](NS(=O)(=O)c1ccc(-c2noc(-c3ccc(Cl)s3)n2)cc1)C(=O)O` [Compound A-26], it took 6.72 nM to reach half-maximal inhibition (IC50).

`CC(C)[C@H](NS(=O)(=O)c1ccc(-c2noc(-c3ccc(Cl)s3)n2)cc1)C(=O)O` [Compound A-27] showed a 50% inhibitory concentration (IC50) of 60.3 nM. In turn, `O=C(O)[C@@H](Cc1ccccc1)NS(=O)(=O)c1ccc(-c2noc(-c3ccccc3)n2)cc1` [Compound A-29] had a half-maximal inhibitory concentration (IC50) of 27.9 nM. For `Cc1ccc(-c2nc(-c3ccc(S(=O)(=O)N[C@@H](Cc4ccccc4)C(=O)O)cc3)no2)cc1` [Compound A-30], the IC50 stood at 39.8 nM. The result for `CCc1ccc(-c2nc(-c3ccc(S(=O)(=O)N[C@H](Cc4ccccc4)C(=O)O)cc3)no2)cc1` [Compound A-31] reads 4.98 nM. Take `N#Cc1ccc(-c2nc(-c3ccc(S(=O)(=O)N[C@H](Cc4ccccc4)C(=O)O)cc3)no2)cc1` [Compound A-34]: half-maximal inhibition (IC50) was put at 13.1 nM. For `O=C(O)[C@@H](Cc1ccccc1)NS(=O)(=O)c1ccc(-c2noc(-c3ccc(C4CCCCC4)cc3)n2)cc1` [Compound A-35], the IC50 was 14.4 nM. `Cc1cccc(-c2nc(-c3ccc(S(=O)(=O)N[C@H](Cc4ccccc4)C(=O)O)cc3)no2)c1` [Compound A-36] yielded an IC50 of 38 nM. Regarding `O=C(O)[C@H](Cc1ccccc1)NS(=O)(=O)c1ccc(-c2noc(-c3ccc4c(c3)OCO4)n2)cc1` [Compound A-37], the concentration for half-maximal inhibition (IC50) was determined as 20.2 nM.

`COc1ccc(-c2nc(-c3ccc(S(=O)(=O)N[C@@H](Cc4ccccc4)C(=O)O)cc3)no2)cc1OC` [Compound A-38] returned an IC50 of 506 nM. This IC50 is about 25-fold higher than that of the compound before. In the case of `O=C(O)[C@H](Cc1ccccc1)NS(=O)(=O)c1ccc(-c2noc(-c3ccc(Cl)c(Cl)c3)n2)cc1` [Compound A-39], the IC50 was 80.7 nM. Consider `O=C(O)[C@@H](Cc1ccccc1)NS(=O)(=O)c1ccc(-c2noc(-c3cccs3)n2)cc1` [Compound A-40], for which 31 nM corresponded to half-maximal inhibition (IC50). The value for `Cc1ccc(-c2nc(-c3ccc(S(=O)(=O)N[C@H](Cc4ccccc4)C(=O)O)cc3)no2)s1` [Compound A-41] was 5.59 nM; that for `O=C(O)[C@@H](Cc1ccccc1)NS(=O)(=O)c1ccc(-c2noc(-c3ccco3)n2)cc1` [Compound A-42] was 47 nM; that for `O=C(O)[C@@H](Cc1ccccc1)NS(=O)(=O)c1ccc(-c2noc(-c3cccnc3)n2)cc1` [Compound A-43] was 171 nM. For `C[C@@H](NS(=O)(=O)c1ccc(-c2noc(-c3ccccc3)n2)cc1)C(=O)O` [Compound A-44], the concentration for half-maximal inhibition (IC50) came out at 45 nM. Compound `C[C@@H](NS(=O)(=O)c1ccc(-c2noc(-c3ccc(F)cc3)n2)cc1)C(=O)O` [Compound A-45] yielded an IC50 of 31 nM. This IC50 and that of the compound before are within 1.5-fold of each other. The compound `Cc1ccc(-c2nc(-c3ccc(S(=O)(=O)N[C@@H](C)C(=O)O)cc3)no2)cc1` [Compound A-46] registered a half-inhibitory concentration (IC50) of 458 nM. In the case of `CCc1ccc(-c2nc(-c3ccc(S(=O)(=O)N[C@H](C)C(=O)O)cc3)no2)cc1` [Compound A-47], the concentration for half-maximal inhibition (IC50) worked out at 4.63 nM. `CCCc1ccc(-c2nc(-c3ccc(S(=O)(=O)N[C@H](C)C(=O)O)cc3)no2)cc1` [Compound A-48] yielded an IC50 of 1.17 nM. `CCCc1ccc(-c2nc(-c3ccc(S(=O)(=O)N[C@@H](C)C(=O)O)cc3)no2)cc1` [Compound A-49] displayed a half-inhibitory concentration (IC50) of 126 nM. As to `C[C@@H](NS(=O)(=O)c1ccc(-c2noc(-c3ccc([N+](=O)[O-])cc3)n2)cc1)C(=O)O` [Compound A-50], the concentration for half-maximal inhibition (IC50) is 12.6 nM. This IC50 is about 10-fold lower than that of the compound before. Regarding `CC(=O)c1ccc(-c2nc(-c3ccc(S(=O)(=O)N[C@H](C)C(=O)O)cc3)no2)cc1` [Compound A-51], the half-maximal inhibitory concentration (IC50) was 3.21 nM. This IC50 is about 3.9-fold lower than that of the compound before. Take `C[C@@H](NS(=O)(=O)c1ccc(-c2noc(-c3cccs3)n2)cc1)C(=O)O` [Compound A-52]: half-maximal inhibition (IC50) was put at 36.8 nM. This IC50 lies about 11-fold higher than the previous one. The result for `Cc1ccc(-c2nc(-c3ccc(S(=O)(=O)N[C@H](C)C(=O)O)cc3)no2)s1` [Compound A-53] reads 8.74 nM; that for `C[C@@H](NS(=O)(=O)c1ccc(-c2noc(-c3ccc(Cl)s3)n2)cc1)C(=O)O` [Compound A-54], 12.4 nM. As to `C[C@@H](NS(=O)(=O)c1ccc(-c2noc(-c3ccsc3)n2)cc1)C(=O)O` [Compound A-55], the half-inhibitory concentration (IC50) worked out at 50.3 nM. Compared with the last compound, the IC50 is about 4.1-fold higher. The result for `C[C@@H](NS(=O)(=O)c1ccc(-c2noc(-c3ccco3)n2)cc1)C(=O)O` [Compound A-56] reads 70.5 nM; that for `CCc1ccc(-c2nc(-c3ccc(S(=O)(=O)NCC(=O)O)cc3)no2)cc1` [Compound A-59], 20 nM. In turn, `CC(C)c1ccc(-c2nc(-c3ccc(S(=O)(=O)NCC(=O)O)cc3)no2)cc1` [Compound A-60] registered a 50% inhibitory concentration (IC50) of 14.3 nM. Turning to `CCCc1ccc(-c2nc(-c3ccc(S(=O)(=O)NCC(=O)O)cc3)no2)cc1` [Compound A-61], the midpoint of inhibition, the IC50, lay at 15.7 nM.

`O=C(O)CNS(=O)(=O)c1ccc(-c2noc(-c3cccs3)n2)cc1` [Compound A-62] returned an IC50 of 196 nM. `Cc1ccc(-c2nc(-c3ccc(S(=O)(=O)NCC(=O)O)cc3)no2)s1` [Compound A-63]: 33.9 nM corresponded to half-maximal inhibition (IC50). The value for `CCc1ccc(-c2nc(-c3ccc(S(=O)(=O)N[C@H](Cc4c[nH]c5ccccc45)C(=O)O)cc3)no2)cc1` [Compound A-64] was 1.39 nM; that for `CCCc1ccc(-c2nc(-c3ccc(S(=O)(=O)N[C@H](Cc4c[nH]c5ccccc45)C(=O)O)cc3)no2)cc1` [Compound A-65] was 1.66 nM; that for `CC(C)C[C@@H](NS(=O)(=O)c1ccc(-c2noc(-c3ccc(Cl)cc3)n2)cc1)C(=O)O` [Compound A-66] was 37.6 nM.
